Where a name gives a salt, the structure may show the parent alone.

T2 sequence (P56817 46-501): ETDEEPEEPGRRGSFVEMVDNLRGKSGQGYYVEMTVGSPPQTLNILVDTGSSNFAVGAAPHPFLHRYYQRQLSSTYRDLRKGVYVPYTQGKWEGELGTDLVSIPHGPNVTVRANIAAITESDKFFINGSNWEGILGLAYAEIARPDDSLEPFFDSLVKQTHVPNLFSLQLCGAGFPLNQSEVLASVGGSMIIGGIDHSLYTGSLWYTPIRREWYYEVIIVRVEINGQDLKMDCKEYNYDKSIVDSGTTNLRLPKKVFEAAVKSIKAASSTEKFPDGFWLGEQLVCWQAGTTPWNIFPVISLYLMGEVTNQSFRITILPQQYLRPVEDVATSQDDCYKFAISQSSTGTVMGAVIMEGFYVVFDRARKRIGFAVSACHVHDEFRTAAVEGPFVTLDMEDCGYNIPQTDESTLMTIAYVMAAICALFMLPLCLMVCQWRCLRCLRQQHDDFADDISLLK

For one experiment, the target named is T1, BACE2 (Rattus norvegicus, UniProt Q6IE75).
T1 construct: endogenous cellular BACE2 in the Ins1e rat cell line; endogenous in cells; host or cells: INS-TMEM27 (INS1e-derived rat cell line with TetOn-inducible full-length hTMEM27)
T1 sequence (Q6IE75 63-514): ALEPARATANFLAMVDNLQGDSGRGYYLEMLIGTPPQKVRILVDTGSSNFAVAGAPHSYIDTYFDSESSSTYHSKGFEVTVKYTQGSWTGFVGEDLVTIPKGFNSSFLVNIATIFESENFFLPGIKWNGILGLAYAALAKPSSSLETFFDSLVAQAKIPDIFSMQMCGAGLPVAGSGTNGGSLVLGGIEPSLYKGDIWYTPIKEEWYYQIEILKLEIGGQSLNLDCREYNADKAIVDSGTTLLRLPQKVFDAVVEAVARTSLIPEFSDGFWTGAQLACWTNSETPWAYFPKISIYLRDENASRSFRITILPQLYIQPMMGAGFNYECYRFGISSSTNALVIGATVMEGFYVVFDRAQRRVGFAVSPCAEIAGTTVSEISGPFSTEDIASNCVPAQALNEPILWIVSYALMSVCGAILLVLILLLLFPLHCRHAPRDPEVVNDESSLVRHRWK
The experiment in a line: Assay for BACE inhibition by measuring cellular TMEM27 cleavage. As to conditions: INS-TMEM27 cells (INS1e-derived); shed TMEM27 by ELISA; read-out: BACE2 cell act. IC50. The class given is cell-based. From the text:
Assay for BACE Inhibition by Measuring Cellular TMEM27 Cleavage:
The assay uses the principle of inhibition of human TMEM27 cleavage by endogenous cellular BACE2 in the Ins1e rat cell line and shedding from the cell surface into the culture medium, followed by detection in an ELISA assay. Inhibition of BACE2 prevents the cleavage and shedding in a dose-dependent manner.
The stable cell line “INS-TMEM27” represents an INS1e-derived cell line with inducible expression (using the TetOn system) of full-length hTMEM27 in a doxycycline-dependent manner. The cells are cultured throughout the experiment in RPMI1640+Glutamax (Invitrogen) Penicillin/Streptomycin, 10% Fetal bovine serum, […] pyruvate, […] beta-mercatptoethanol, 100 micrograms/ml G418 and 100 microgram/ml hygromycin and are grown inadherent culture at 37° C. in a standard CO2 cell culture incubator. INS-TMEM27 cells are seeded in 96-well plates. After 2 days in culture, BACE2 inhibitor is added in a range of concentrations as required by the assay and after a further two hours, doxycycline is added to a final concentration of 500 ng/ml. The cells are incubated for a further 46 hours and the supernatant harvested for detection of shed TMEM27.
An ELISA assay (using a pair of mouse anti-human-TMEM27 antibodies, raised against the extracellular domain of TMEM27) is used for detection of TMEM27 in the culture medium. An EC50 for BACE2 inhibition is calculated using the ELISA readout for each inhibitor concentration with standard curve-fitting software such as XLFit for the Excel spreadsheet program.
For orientation: ELISA stands for enzyme-linked immunosorbent assay.
`Cn1cc(Cl)c(C(=O)Nc2ccc(F)c([C@@]3(C)N=C(N)OCC3(F)F)c2)n1` [Example 18, 4-Chloro-1-methyl-1H-pyrazole-3-carboxylic acid [3-((R)-2-amino-5,5-difluoro-4-methyl-5,6-dihydro-4H-[1,3]oxazin-4-yl)-4-fluoro-phenyl]-amide]: the IC50 turned out to be 0.015 µM.

As for `Cc1cc(Cl)cnc1C(=O)Nc1ccc(F)c([C@@]2(C)N=C(N)OCC2(F)F)c1` [Example 13, 5-Chloro-3-methyl-pyridine-2-carboxylic acid [3-((R)-2-amino-5,5-difluoro-4-methyl-5,6-dihydro-4H-[1,3]oxazin-4-yl)-4-fluoro-phenyl]-amide], the concentration for half-maximal inhibition (IC50) is 0.024 µM.

A further experiment concerns the target T2, BACE1 (Homo sapiens, UniProt P56817).
T2 construct: Human HEK293 cells which are stably transfected with a vector expressing a cDNA of the human APP wt gene (APP695); endogenous in cells; host or cells: HEK293 stably transfected with human APP695 wt
The experiment can be described thus: Cellular Aβ-lowering assay (Aβ40 ELISA). It is filed as cell-based. As to conditions: HEK293 cells stably expressing human APP695; Aβ40 in culture supernatant; read-out: BACE1 cell act. Aβ40 IC50. The method, then:
Cellular Aβ-Lowering Assay:
Human HEK293 cells which are stably transfected with a vector expressing a cDNA of the human APP wt gene (APP695) were used to assess the potency of the compounds in a cellular assay. The cells were seeded in 96-well microtiter plates in cell culture medium (Iscove, plus 10% (v/v) fetal bovine serum, glutamine, penicillin/streptomycin) to about 80% confluence and the compounds were added at a 10× concentration in 1/10 volume of medium without FCS containing 8% DMSO (final concentration of DMSO was kept at 0.8% v/v). After 18-20 hrs incubation at 37° C. and 5% CO2 in a humidified incubator the culture supernatant was harvested for the determination of Aβ40 concentrations. […] Subsequently the wells of the microtiter plate were washed extensively with Tris-buffered saline containing 0.05% Tween 20 and the assay was developed with tetramethylbenzidine/H2O2 in citric acid buffer. After stopping the reaction with one volume 1 NH2SO4 the reaction was measured in an ELISA reader at 450 nm wavelength. The concentrations of Aβ in the culture supernatants were calculated from a standard curve obtained with known amounts of pure Aβ peptide.
As for `C[C@]1(c2cc(NC(=O)c3ccc(C#N)c[n+]3[O-])ccc2F)N=C(N)OCC1(F)F` [Example 83, 5-Cyano-1-oxy-pyridine-2-carboxylic acid [3-((R)-2-amino-5,5-difluoro-4-methyl-5,6-dihydro-4H-[1,3]oxazin-4-yl)-4-fluoro-phenyl]-amide], the IC50 was determined as 0.31 µM.

Take `CC1(C)OC(N)=N[C@](C)(c2cc(NC(=O)c3ccc(OCC4CC4)nc3)ccc2F)C1(F)F` [Example 31, N-[3-((R)-2-Amino-5,5-difluoro-4,6,6-trimethyl-5,6-dihydro-4H-[1,3]oxazin-4-yl)-4-fluoro-phenyl]-6-cyclopropylmethoxy-nicotinamide]: the IC50 is 2.81 µM.

For the molecule `CCc1ocnc1C(=O)Nc1ccc(F)c([C@@]2(C)N=C(N)OCC2(F)F)c1` [Example 69, formate], the 50% inhibitory concentration (IC50) amounted to 1.48 µM.

As for `CC1(C)OC(N)=N[C@](C)(c2cc(NC(=O)c3ccn(C(F)F)n3)ccc2F)C1(F)F` [Example 38, 1-Difluoromethyl-1H-pyrazole-3-carboxylic acid [3-((R)-2-amino-5,5-difluoro-4,6,6-trimethyl-5,6-dihydro-4H-[1,3]oxazin-4-yl)-4-fluoro-phenyl]-amide], the 50% inhibitory concentration (IC50) amounted to 0.006 µM.

As for `CC1(C)OC(N)=N[C@](C)(c2cc(NC(=O)c3cnc(OCC4CC4)cn3)ccc2F)C1(F)F` [Example 36, 5-Cyclopropylmethoxy-pyrazine-2-carboxylic acid [3-((R)-2-amino-5,5-difluoro-4,6,6-trimethyl-5,6-dihydro-4H-[1,3]oxazin-4-yl)-4-fluoro-phenyl]-amide], the concentration for half-maximal inhibition (IC50) was found to be 2.46 µM.

Take `C[C@]1(c2cc(NC(=O)c3coc(CCl)n3)ccc2F)N=C(N)OCC1(F)F` [Example 57, 2-Chloromethyl-oxazole-4-carboxylic acid [3-((R)-2-amino-5,5-difluoro-4-methyl-5,6-dihydro-4H-[1,3]oxazin-4-yl)-4-fluoro-phenyl]-amide]: the IC50 came out at 0.073 µM.

On to `CC1(C)OC(N)=N[C@](C)(c2cc(NC(=O)c3ccc(OCC(F)F)cn3)ccc2F)C1(F)F` [Example 28, 5-(2,2-Difluoro-ethoxy)-pyridine-2-carboxylic acid [3-((R)-2-amino-5,5-difluoro-4,6,6-trimethyl-5,6-dihydro-4H-[1,3]oxazin-4-yl)-4-fluoro-phenyl]-amide], for which the IC50 was found to be 0.2 µM.

In the case of `CC1(C)OC(N)=N[C@](C)(c2cc(NC(=O)c3ccc(OCC(F)(F)C(F)F)cn3)ccc2F)C1(F)F` [Example 30, 5-(2,2,3,3-Tetrafluoro-propoxy)-pyridine-2-carboxylic acid [3-((R)-2-amino-5,5-difluoro-4,6,6-trimethyl-5,6-dihydro-4H-[1,3]oxazin-4-yl)-4-fluoro-phenyl]-amide], the IC50 amounted to 0.23 µM.

In the case of `CCn1cc(Cl)c(C(=O)Nc2ccc(F)c([C@@]3(C)N=C(N)OCC3(F)F)c2)n1` [Example 77, 4-Chloro-1-ethyl-1H-pyrazole-3-carboxylic acid [3-((R)-2-amino-5,5-difluoro-4-methyl-5,6-dihydro-4H-[1,3]oxazin-4-yl)-4-fluoro-phenyl]-amide], the IC50 was 0.1 µM.

With `C[C@]1(c2cc(NC(=O)/C=C/c3ccco3)ccc2F)N=C(N)OCC1(F)F` [Example 82, (E)-N-[3-((R)-2-Amino-5,5-difluoro-4-methyl-5,6-dihydro-4H-[1,3]oxazin-4-yl)-4-fluoro-phenyl]-3-furan-2-yl-acrylamide], the IC50 was found to be 0.91 µM.

With `C[C@]1(c2cc(NC(=O)c3ccc([N+](=O)[O-])o3)ccc2F)N=C(N)OCC1(F)F` [Example 81, 5-Nitro-furan-2-carboxylic acid [3-((R)-2-amino-5,5-difluoro-4-methyl-5,6-dihydro-4H-[1,3]oxazin-4-yl)-4-fluoro-phenyl]-amide], the IC50 was found to be 1.9 µM.

As to `C[C@]1(c2cc(NC(=O)c3ccc(C#CC4CC4)cn3)ccc2F)N=C(N)OCC1(F)F` [Example 40, 5-Cyclopropylethynyl-pyridine-2-carboxylic acid [3-((R)-2-amino-5,5-difluoro-4-methyl-5,6-dihydro-4H-[1,3]oxazin-4-yl)-4-fluoro-phenyl]-amide], the IC50 was 0.46 µM.

Turning to `C[C@]1(c2cc(NC(=O)c3nn(CC(F)(F)F)cc3Cl)ccc2F)N=C(N)OCC1(F)F` [Example 78, 4-Chloro-1-(2,2,2-trifluoro-ethyl)-1H-pyrazole-3-carboxylic acid [3-((R)-2-amino-5,5-difluoro-4-methyl-5,6-dihydro-4H-[1,3]oxazin-4-yl)-4-fluoro-phenyl]-amide], the IC50 was 1.77 µM.

For the molecule `C[C@]1(c2cc(NC(=O)c3cocn3)ccc2F)N=C(N)OCC1(F)F` [Example 55, Oxazole-4-carboxylic acid [3-((R)-2-amino-5,5-difluoro-4-methyl-5,6-dihydro-4H-[1,3]oxazin-4-yl)-4-fluoro-phenyl]-amide], the concentration for half-maximal inhibition (IC50) was found to be 0.495 µM.

As to `CC(=O)Nc1ccc(F)c([C@@]2(C)N=C(N)OCC2(F)F)c1` [Example 73, N-[3-((R)-2-Amino-5,5-difluoro-4-methyl-5,6-dihydro-4H-[1,3]oxazin-4-yl)-4-fluoro-phenyl]-acetamide], the IC50 was found to be 0.18 µM.

For `CCc1nc(C(=O)Nc2ccc(F)c([C@@]3(C)N=C(N)OCC3(F)F)c2)co1` [Example 56, 2-Ethyl-oxazole-4-carboxylic acid [3-((R)-2-amino-5,5-difluoro-4-methyl-5,6-dihydro-4H-[1,3]oxazin-4-yl)-4-fluoro-phenyl]-amide], the IC50 was 0.14 µM.

Turning to `C[C@]1(c2cc(NC(=O)c3ccc(C(N)=O)cn3)ccc2F)N=C(N)OCC1(F)F` [Example 72], the IC50 was 0.23 µM.

Regarding `C[C@]1(c2cc(NC(=O)c3coc(CF)n3)ccc2F)N=C(N)OCC1(F)F` [Example 79, 2-Fluoromethyl-oxazole-4-carboxylic acid [3-((R)-2-amino-5,5-difluoro-4-methyl-5,6-dihydro-4H-[1,3]oxazin-4-yl)-4-fluoro-phenyl]-amide formate], the IC50 came out at 0.003 µM.

Take `Cc1conc1C(=O)Nc1ccc(F)c([C@@]2(C)N=C(N)OCC2(F)F)c1` [Example 61, 4-Methyl-isoxazole-3-carboxylic acid [3-((R)-2-amino-5,5-difluoro-4-methyl-5,6-dihydro-4H-[1,3]oxazin-4-yl)-4-fluoro-phenyl]-amide]: the concentration for half-maximal inhibition (IC50) worked out at 0.305 µM.

`C[C@]1(c2cc(NC(=O)c3cnc(OCC4CC4)cn3)ccc2F)N=C(N)OCC1(F)F` [Example 46, 5-Cyclopropylmethoxy-pyrazine-2-carboxylic acid [3-((R)-2-amino-5,5-difluoro-4-methyl-5,6-dihydro-4H-[1,3]oxazin-4-yl)-4-fluoro-phenyl]-amide]: the concentration for half-maximal inhibition (IC50) was determined as 0.07 µM.

In general, IC50 refers to the concentration that inhibits the measured activity by half.
